Legend:
Format in all cases: functional
Rattus norvegicus [1] = assay: % inhibition against anaphylactic response in rat at dose 50 mg/kg administered orally after 120 min; details: 2 h, route oral
Rattus norvegicus [2] = assay: % inhibition against anaphylactic response in rat at dose 50 mg/kg administered orally after 60 min; details: 1 h, route oral
Rattus norvegicus [3] = assay: % inhibition against anaphylactic response in rat at dose 10 mg/kg administered orally after 60 min; details: 1 h, route oral

## COc1cc2c(cc1OC)C(COCCNCCO)OCCC2 (stereo unspecified)
Rattus norvegicus [1]
  inhibition in vivo at 50 mg/kg: 0%
Rattus norvegicus [2]
  inhibition in vivo at 50 mg/kg: 0%

## COc1cc2c(cc1OC)C(COCCN1CCN(C)CC1)OCCC2 (stereo unspecified)
Rattus norvegicus [1]
  inhibition in vivo at 50 mg/kg: 0%
Rattus norvegicus [2]
  inhibition in vivo at 50 mg/kg: 0%

## COc1cc2c(cc1OC)C(COCCN1CCN(c3ccc(F)cc3)CC1)OCCC2 (stereo unspecified)
Rattus norvegicus [1]
  inhibition in vivo at 50 mg/kg: 0%
Rattus norvegicus [2]
  inhibition in vivo at 50 mg/kg: 52%

## COc1cc2c(cc1OC)C(COCCN1CCN(c3ccccn3)CC1)OCCC2 (stereo unspecified)
Rattus norvegicus [1]
  inhibition in vivo at 50 mg/kg: 35%
Rattus norvegicus [2]
  inhibition in vivo at 50 mg/kg: 94%

## COc1cc2c(cc1OC)C(COCCN1CCN(c3ccccc3OC)CC1)OCCC2 (stereo unspecified)
Rattus norvegicus [1]
  inhibition in vivo at 50 mg/kg: 20%
Rattus norvegicus [2]
  inhibition in vivo at 50 mg/kg: 100%

## O=C(O)c1cc(=O)c2c(OCC(O)COc3cccc4oc(C(=O)O)cc(=O)c34)cccc2o1 [CROMOLYN SODIUM]
Rattus norvegicus [3]
  inhibition in vivo at 10 mg/kg: 100%

Source: ChEMBL document CHEMBL1121512, “1-[Ethoxyamino)methyl]-1,3,4,5-tetrahydro-7,8-dimethoxy-2-benzoxepins: a new class of antianaphylactic agents” (1980)
